{"source": "patent US8906868B2", "about": "“Aminoglycoside derivatives” (Rempex Pharmaceuticals, Inc., priority 2010, dated 2014)", "key": {"ECM6006 aph(3′)-III": {"test_system": "ECM6006 aph(3′)-III", "test": "microbe, parasite or virus in culture", "type": "cell-based, Escherichia coli", "method_in_brief": "(§1)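 MICs came from optical density at 600 nm after 18 hours at 35° C, with visual confirmation. Compounds were serially diluted 2-fold in cation-adjusted Mueller Hinton broth and inoculated at 5×10^5 CFU/ml following CLSI guidelines.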"}, "ECM6009 aac(3)-II": {"test_system": "ECM6009 aac(3)-II", "test": "microbe, parasite or virus in culture", "type": "cell-based, Escherichia coli", "method_in_brief": "as §1"}, "ECM6010 ant(2″)-I": {"test_system": "ECM6010 ant(2″)-I", "test": "microbe, parasite or virus in culture", "type": "cell-based, Escherichia coli", "method_in_brief": "as §1"}, "ECM6011 aph(3′)-I": {"test_system": "ECM6011 aph(3′)-I", "test": "microbe, parasite or virus in culture", "type": "cell-based, Escherichia coli", "method_in_brief": "as §1"}, "ECM6003 rmtB": {"test_system": "ECM6003 rmtB", "test": "microbe, parasite or virus in culture", "type": "cell-based, Escherichia coli", "settings": "Table 3", "method_in_brief": "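Broth microdilution per CLSI M7-A7 in cation-adjusted Mueller Hinton broth with 2-fold serial dilutions and 5×10^5 CFU/ml inoculum. Incubated 18 hours at 35 °C; MIC read by turbidity at 600 nm and confirmed visually.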"}, "EC1002 aph(3′)-IV": {"test_system": "EC1002 aph(3′)-IV", "test": "organism not typed", "type": "cell-based", "method_in_brief": "as §1"}, "EC1001 acc(6′)-Ib": {"test_system": "EC1001 acc(6′)-Ib", "test": "microbe, parasite or virus in culture", "type": "cell-based, Escherichia coli", "settings": "Table 4", "method_in_brief": "(§2)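 MICs came from well turbidity at 600 nm, checked by eye, after 18 hours at 35° C. Bacteria at a final 5×10^5 CFU/ml were exposed to 2-fold dilution series in cation-adjusted Mueller Hinton broth following CLSI methods.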"}, "[1]": {"test_system": "ECM6007 aac(6′) + aph(2″)", "test": "microbe, parasite or virus in culture", "type": "cell-based, Escherichia coli", "settings": "Table 4", "method_in_brief": "as §2"}, "ACM1005 ATCC 19004": {"test_system": "ACM1005 ATCC 19004", "test": "MIC, broth microdilution", "type": "cell-based, Acinetobacter baumannii", "settings": "Table 4", "method_in_brief": "as §2"}, "ACM1006 acc(6′)-Ib": {"test_system": "ACM1006 acc(6′)-Ib", "test": "microbe, parasite or virus in culture", "type": "cell-based, Acinetobacter baumannii", "settings": "Table 4", "method_in_brief": "as §2"}, "PAM3072 aac(6′)-II": {"test_system": "PAM3072 aac(6′)-II", "test": "microbe, parasite or virus in culture", "type": "cell-based, Pseudomonas aeruginosa", "settings": "Table 5", "method_in_brief": "as §2"}, "PAM3073 aac(6′)-I": {"test_system": "PAM3073 aac(6′)-I", "test": "microbe, parasite or virus in culture", "type": "cell-based, Pseudomonas aeruginosa", "settings": "Table 5", "method_in_brief": "as §2"}, "Sa 287 aac(6′) + aph(2″)": {"test_system": "Sa 287 aac(6′) + aph(2″)", "test": "microbe, parasite or virus in culture", "type": "cell-based, Staphylococcus aureus", "settings": "Table 5", "method_in_brief": "as §2"}, "[2]": {"test_system": "Human kidney cortex proximal tubule cells (HK-2)", "test": "Aminoglycoside cytotoxicity in HK-2 cells (Alamar Blue)", "type": "cell-based", "settings": "HK-2 cells, 50% decrease in Alamar Blue signal; read-out: IC50 @ 24 hrs", "procedure": "(§3) Human kidney cortex proximal tubule cells (HK-2) were purchased from ATCC and maintained according to manufacturer's recommendations in Keratinocyte Serum-Free Media (SFM; Invitrogen), with 0.05 mg/ml bovine pituitary extract and 5 ng/ml of Epidermal growth factor.\n(§4) Solutions of aminoglycosides at a concentration of 50 mg/mL (both control and novel test compounds) were prepared in sterile deionized water. Before treatment of cells, the concentrated drug solutions were diluted to the appropriate concentration in Keratinocyte SFM {20, 10, 5, 2.5, 1.25, 0.6, 0.3, and 0 mM}. Pentamidine was used as a positive control.\n(§5) HK-2 cells were seeded at 2.5*10^4 cells/well density in 96-well plates in Keratinocyte SFM and placed in a 37° C. tissue culture CO2 incubator. […]. Each treatment was performed in duplicate. […] Drug solutions were aspirated and replaced with 0.1 ml of 5% Alamar Blue (Abd Serotec) cell proliferation reagent in Keratinocyte SFM. Plates were read on a Molecular Devices Gemini EM fluorometer pre-warmed at 37° C. at […]. Plates were read at 0 and 4 hrs, and were incubated at 37° C. in a CO2 incubator in between reads. The fluorescence signal at the 0 h timepoint was subtracted from that at 4 h to account for background fluorescence.\n(§6) The cytotoxicity data were reported as the amount of drug producing a 50% decrease in Alamar Blue signal relative to the no drug treatment control."}, "[3]": {"test_system": "Escherichia coli (ATCC 25922)", "test": "MIC, broth microdilution"}, "[4]": {"test_system": "Staphylococcus aureus (ATCC 29213)", "test": "MIC, broth microdilution"}, "[5]": {"test_system": "Klebsiella pneumonia (ATCC 43816)", "test": "MIC, broth microdilution", "settings": "QC strain, Table 2"}, "[6]": {"test_system": "Pseudomonas aeruginosa (ATCC 27853)", "test": "MIC, broth microdilution"}, "[7]": {"test_system": "Acinetobacter baumannii (ATCC 19606)", "test": "MIC, broth microdilution", "settings": "QC strain, Table 2"}, "[8]": {"test": "Aminoglycoside cytotoxicity in HK-2 cells (Alamar Blue)", "type": "cell-based, Human", "settings": "human", "procedure": "as §3, §4, §5, §6"}}}
{"compound": "Gentamicin [reference compound]", "values": [{"measurement": "Compound MIC on Bacterial Strains: ECM6006 aph(3′)-III", "setting": "ECM6006 aph(3′)-III", "result": "B (key: A: MIC of 1 μg/ml or less; B: MIC of greater than 1 μg/ml to 8 μg/ml; MIC of greater than 8 μg/ml)"}, {"measurement": "Compound MIC on Bacterial Strains: ECM6009 aac(3)-II", "setting": "ECM6009 aac(3)-II", "result": "C (key: A: MIC of 1 μg/ml or less; B: MIC of greater than 1 μg/ml to 8 μg/ml; MIC of greater than 8 μg/ml)"}, {"measurement": "Compound MIC on Bacterial Strains: ECM6010 ant(2″)-I", "setting": "ECM6010 ant(2″)-I", "result": "C (key: A: MIC of 1 μg/ml or less; B: MIC of greater than 1 μg/ml to 8 μg/ml; MIC of greater than 8 μg/ml)"}, {"measurement": "Compound MIC on Bacterial Strains: ECM6011 aph(3′)-I", "setting": "ECM6011 aph(3′)-I", "result": "B (key: A: MIC of 1 μg/ml or less; B: MIC of greater than 1 μg/ml to 8 μg/ml; MIC of greater than 8 μg/ml)"}, {"measurement": "Compound MIC on Bacterial Strains: ECM6003 rmtB", "setting": "ECM6003 rmtB", "result": "C (MIC of greater than 8 μg/ml)"}, {"measurement": "Compound MIC on Bacterial Strains: EC1002 aph(3′)-IV", "setting": "EC1002 aph(3′)-IV", "result": "B (key: A: MIC of 1 μg/ml or less; B: MIC of greater than 1 μg/ml to 8 μg/ml; MIC of greater than 8 μg/ml)"}, {"measurement": "Compound MIC on Bacterial Strains: Escherichia coli EC1001 acc(6′)-Ib", "setting": "EC1001 acc(6′)-Ib", "result": "B (MIC of greater than 1 μg/ml to 8 μg/ml)"}, {"measurement": "Compound MIC on Bacterial Strains: Escherichia coli ECM6007 aac(6′) + aph(2″)", "setting": "[1]", "result": "B (MIC of greater than 1 μg/ml to 8 μg/ml)"}, {"measurement": "Compound MIC on Bacterial Strains: Acinetobacter baumannii ACM1005 ATCC 19004", "setting": "ACM1005 ATCC 19004", "result": "A (MIC of 1 μg/ml or less)"}, {"measurement": "Compound MIC on Bacterial Strains: Acinetobacter baumannii ACM1006 acc(6′)-Ib", "setting": "ACM1006 acc(6′)-Ib", "result": "B (MIC of greater than 1 μg/ml to 8 μg/ml)"}, {"measurement": "Compound MIC on Bacterial Strains: Pseudomonas aeruginosa PAM3072 aac(6′)-II", "setting": "PAM3072 aac(6′)-II", "result": "C (MIC of greater than 8 μg/ml)"}, {"measurement": "Compound MIC on Bacterial Strains: Pseudomonas aeruginosa PAM3073 aac(6′)-I", "setting": "PAM3073 aac(6′)-I", "result": "B (MIC of greater than 1 μg/ml to 8 μg/ml)"}, {"measurement": "Compound MIC on Bacterial Strains: Staphylococcus aureus Sa 287 aac(6′) + aph(2″)", "setting": "Sa 287 aac(6′) + aph(2″)", "result": "C (MIC of greater than 8 μg/ml)"}, {"measurement": "IC50", "setting": "[2]", "result": "> 20", "unit": "mM"}, {"measurement": "Compound MIC on Bacterial Strains: E. coli ATCC 25922", "setting": "[3]; QC strain, Table 2", "result": "A (MIC of 1 μg/ml or less)"}, {"measurement": "Compound MIC on Bacterial Strains: ECM6000 ATCC 25922", "setting": "[3]; Table 3", "result": "A (MIC of 1 μg/ml or less)"}, {"measurement": "Compound MIC on Bacterial Strains: Escherichia coli ECM6000 ATCC 25922", "setting": "[3]; Table 4", "result": "A (MIC of 1 μg/ml or less)"}, {"measurement": "Compound MIC on Bacterial Strains: S. aureus ATCC 29213", "setting": "[4]; QC strain, Table 2", "result": "A (MIC of 1 μg/ml or less)"}, {"measurement": "Compound MIC on Bacterial Strains: Staphylococcus aureus SAM1000 ATCC 29213", "setting": "[4]; Table 5", "result": "A (MIC of 1 μg/ml or less)"}, {"measurement": "Compound MIC on Bacterial Strains: K. pneumonia ATCC 43816", "setting": "[5]", "result": "A (MIC of 1 μg/ml or less)"}, {"measurement": "Compound MIC on Bacterial Strains: P. aeruginosa ATCC 27853", "setting": "[6]; QC strain, Table 2", "result": "A (MIC of 1 μg/ml or less)"}, {"measurement": "Compound MIC on Bacterial Strains: Pseudomonas aeruginosa PAM3034 ATCC 27853", "setting": "[6]; Table 5", "result": "A (MIC of 1 μg/ml or less)"}, {"measurement": "Compound MIC on Bacterial Strains: A. baumannii ATCC 19606", "setting": "[7]", "result": "C (MIC of greater than 8 μg/ml)"}]}
{"compound": "NCC[C@H](O)C(=O)N[C@@H]1C[C@H](N)[C@@H](O[C@H]2O[C@H](CN)CC[C@H]2N)[C@H](O)[C@H]1O[C@H]1O[C@H](CO)[C@@H](O)[C@H](N)[C@H]1O", "note": "[Arbekacin, reference compound]", "values": [{"measurement": "IC50 at 24 h", "setting": "[8]", "result": "> 20", "unit": "mM"}]}
